# Assay results taken from BindingDB's records for patent US10106535 (Chdi Foundation, 2018).
# Molecular target: Histone deacetylase 4 (Homo sapiens, UniProt P56524)
# Experiment: Biochemical HDAC-4 Assay
# Description: 5 μl of each solution of 1:20 diluted compound from above is transferred to a clear bottomed, black, 384-well assay plate using the Bravo or the Janus (384-well MDT head from Perkin Elmer). Using a 16-channel Matrix multi-channel pipette, 35 μl of the working solution of HDAC4 catalytic domain enzyme (0.2 μg/ml in assay buffer) is transferred to the assay plate. The assay is then started by adding 10 μl of 5× (50 μM) substrate to the assay plates using either the Bravo, Janus or 16-channel Matrix multi-channel pipette. The assay plate is then shaken for two minutes on an orbital shaker at 900 rpm (rotations per minute). Next the plate is incubated for 15 minutes at 37° C. The reaction is stopped by adding 25 μl of 3× (30 μM) developer/stop solution to the assay plates using either the Bravo, Janus or a 16-channel Matrix multi-channel pipette. Assay plates are then shaken for 5 minutes on an orbital shaker at 1200 rpm. Next, the assay plates are incubated at 37° C. for 1 hour in a tissue culture incubator. Finally, the fluorescence is measured (Excitation: 355 nm, Emission: 460 nm) using PerkinElmer EnVision in top read mode.
# Chain of Histone deacetylase 4 (P56524 whole entry): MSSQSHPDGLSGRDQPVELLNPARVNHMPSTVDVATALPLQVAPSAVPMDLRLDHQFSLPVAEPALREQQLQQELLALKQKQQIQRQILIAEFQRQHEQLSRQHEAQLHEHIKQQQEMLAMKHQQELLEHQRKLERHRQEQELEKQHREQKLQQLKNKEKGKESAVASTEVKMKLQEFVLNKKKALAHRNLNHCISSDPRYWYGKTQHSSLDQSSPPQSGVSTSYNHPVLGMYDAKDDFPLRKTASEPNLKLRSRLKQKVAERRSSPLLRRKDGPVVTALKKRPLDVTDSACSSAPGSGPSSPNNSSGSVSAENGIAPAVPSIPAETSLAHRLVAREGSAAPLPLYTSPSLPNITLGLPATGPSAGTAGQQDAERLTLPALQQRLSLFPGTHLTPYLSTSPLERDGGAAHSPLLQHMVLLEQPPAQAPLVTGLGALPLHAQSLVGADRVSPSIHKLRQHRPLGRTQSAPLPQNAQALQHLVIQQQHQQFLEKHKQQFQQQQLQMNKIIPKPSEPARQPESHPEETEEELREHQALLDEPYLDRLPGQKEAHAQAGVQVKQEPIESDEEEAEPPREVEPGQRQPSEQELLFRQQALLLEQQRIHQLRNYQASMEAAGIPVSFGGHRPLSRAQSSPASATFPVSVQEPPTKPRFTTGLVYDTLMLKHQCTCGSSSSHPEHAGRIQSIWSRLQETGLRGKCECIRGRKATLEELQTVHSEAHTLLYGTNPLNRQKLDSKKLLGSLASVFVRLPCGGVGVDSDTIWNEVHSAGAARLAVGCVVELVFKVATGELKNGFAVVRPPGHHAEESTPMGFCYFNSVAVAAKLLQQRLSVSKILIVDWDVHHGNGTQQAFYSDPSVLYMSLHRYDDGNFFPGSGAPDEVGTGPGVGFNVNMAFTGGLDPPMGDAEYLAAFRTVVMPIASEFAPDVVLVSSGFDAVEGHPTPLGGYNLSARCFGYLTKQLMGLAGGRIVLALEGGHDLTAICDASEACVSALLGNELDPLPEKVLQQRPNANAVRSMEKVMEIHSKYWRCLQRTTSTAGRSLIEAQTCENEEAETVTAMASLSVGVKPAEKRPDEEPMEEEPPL
compound,measurement,value
"O=C(NO)C1C=CCC1c1ccccc1 (stereo unspecified) [US10106535, Example 30]",IC50,12.3 µM
